# Earlier results in US20240226024A1 (Empros Pharma AB, priority 2021, published 2024).
# What was measured:
# [1] = for Placebo adjusted reduction of body weight: oral administration for 6 months; for Additional weight loss relative to placebo at one year: on average
# [2] = for Fraction of the dose absorbed: oral administration
# [3] = not given; remark: listed apart in the source
smiles,measurement,setting,value
"C[C@H]1O[C@H](O[C@H]2[C@H](O)[C@@H](O)[C@@H](O[C@H]3[C@H](O)[C@@H](O)C(O)O[C@@H]3CO)O[C@@H]2CO)[C@H](O)[C@@H](O)[C@@H]1N[C@H]1C=C(CO)[C@@H](O)[C@H](O)[C@H]1O (stereo partly drawn) [acarbose, O-4,6-Dideoxy-4-[[(1S,4R,5S,6S)-4,5,6-trihydroxy-3-(hydroxymethyl)cyclohex-2-enyl]amino]-α-D-glucopyranosyl-(1→4)-O-α-D-gluco-pyranosyl-(1→4)-D-glucopyranose]",Placebo adjusted reduction of body weight,[1],approx. 0.5%
"CCCCCCCCCCC[C@@H](C[C@@H]1OC(=O)[C@H]1CCCCCC)OC(=O)[C@H](CC(C)C)NC=O [orlistat, (S)-((S)-1-((2S,3S)-3-Hexyl-4-oxooxetan-2-yl)tridecan-2-yl) 2-formamido-4-methylpentanoate]","Relative weight loss, best case scenario","[1]; conventional dosage form, placebo 6%",10%
same,"Approximate relative weight loss, conventional dosage form",[1]; conventional dosage forms,2-3%
same,Additional weight loss relative to placebo at one year,[1],~3%
same,Placebo adjusted reduction of body weight,[1],2-3%
same,Fraction of the dose absorbed,[2],< 3%
same,Plasma exposure,"[2]; oral, conventional dosage form",< 5 ng/mL
same,Solubility in water (in words),,practically insoluble in water
same,Water solubility,,less than 0.001 g/ml
same,log P,,8.5
same,"Participants who reported faecal incontinence, similar 6-month trial",[3]; 6-month trial,5%
same,Patients who complain about GI side-effects in clinical trials,"[3]; diarrhea, oily spotting and fecal urgency",≥ 25%
same,"Participants who reported faecal incontinence, trials of longer duration",[3]; trials of longer duration,approximately 18%
"OCCN1C[C@H](O)[C@@H](O)[C@H](O)[C@H]1CO [Miglitol, miglitol]",Fraction of the dose absorbed,[2],100%
OCC(CO)N[C@H]1C[C@](O)(CO)[C@@H](O)[C@H](O)[C@H]1O [voglibose],Fraction of the dose absorbed,[2],only negligibly absorbed
C[C@H]1CNCCc2ccc(Cl)cc21 [lorcaserin],Decrease of body weight more than placebo,"[1]; human, in vivo",about 3.2 kg
same,"Decrease of body weight more than placebo, % of initial body weight","[1]; human, in vivo",about 3.2%
same,Additional weight loss relative to placebo at one year,[1],~3%
